Read-outs that look alike come from different tables or passages of the source.
Experiments:
IMP-1 = IMP-1 (Serratia marcescens, UniProt P52699); test: biochemical; assay type: biochemical; settings: read-out: IMP-1 IC50
[1] = tested on: Serratia marcescens expressing IMP-1 (CL5741); test: Antibiotic potentiation activity: synergistic concentration (MITC95) with imipenem, OD600 growth; assay type: cell-based
Summary of the method: (§1)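 In 1.1× CAMHB, clinical isolates from overnight plates were challenged with test compound alongside imipenem at an assay concentration of 4 μg/ml, sometimes 1 μg/ml. Plates sat covered at 35 °C for 22–24 h prior to spectrophotometric reading.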

[2] = tested on: Escherichia coli expressing NDM-1 (CLB30016); test: as above; assay type: cell-based
Summary of the method: as §1

[3] = tested on: Klebsiella pneumoniae expressing VIM-1 (IHMA599644); test: as above; assay type: cell-based
Summary of the method: as §1

NDM-1 = NDM-1 (Klebsiella pneumoniae, UniProt C7C422); test: biochemical; assay type: biochemical; settings: read-out: NDM-1 IC50
Sequence of NDM-1 (C7C422 whole entry, looked up, species assumed): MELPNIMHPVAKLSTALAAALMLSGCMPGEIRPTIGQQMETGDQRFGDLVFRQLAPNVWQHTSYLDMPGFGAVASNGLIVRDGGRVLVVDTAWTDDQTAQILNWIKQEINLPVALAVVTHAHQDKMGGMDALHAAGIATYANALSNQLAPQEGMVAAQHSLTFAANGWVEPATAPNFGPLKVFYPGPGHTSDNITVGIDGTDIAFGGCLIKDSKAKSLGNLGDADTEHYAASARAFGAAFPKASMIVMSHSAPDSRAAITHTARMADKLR

VIM-1 = VIM-1 (Pseudomonas aeruginosa (strain ATCC 15692 / DSM 22644 / CIP 104116 / JCM 14847 / LMG 12228 / 1C / PRS 101 / PAO1), UniProt A0A0F7KYQ8); test: Enzyme activity: determination of IC50, fluorescence assay with CCF2-FA substrate (VIM-1); assay type: biochemical
[4] = IMP-1 enzyme, CCF2-FA substrate
[5] = Serratia marcescens CL5741 (IMP-1), 95% growth inhibition
[6] = (CLB30016, NDM-1), 95% growth inhibition
[7] = Klebsiella pneumoniae IHMA599644 (VIM-1), 95% growth inhibition
[8] = NDM-1 enzyme, CCF2-FA substrate
[9] = VIM-1 IC50, VIM-1 enzyme, CCF2-FA substrate
[10] = fluorescence assay with CCF2-FA substrate
[11] = CL5741 (IMP-1), 95% inhibition of bacterial growth
[12] = CLB30016 (NDM-1), 95% inhibition of bacterial growth
[13] = IHMA599644 (VIM-1), 95% inhibition of bacterial growth
[14] = fluorescence assay with CCF2-FA substrate, read-out: VIM-1 IC50
[15] = VIM-1 enzyme, CCF2-FA substrate, read-out: VIM-1 IC50
[16] = IMP-1 enzyme, CCF2-FA fluorescence assay
[17] = Serratia marcescens expressing IMP-1 (CL5741), 95% growth inhibition
[18] = Escherichia coli expressing NDM-1 (CLB30016), 95% growth inhibition
[19] = Klebsiella pneumoniae expressing VIM-1 (IHMA599644), 95% growth inhibition
[20] = NDM-1 enzyme, CCF2-FA fluorescence assay
[21] = VIM-1 enzyme, CCF2-FA fluorescence assay, read-out: VIM-1 IC50

Sequence of IMP-1 (P52699 whole entry, looked up): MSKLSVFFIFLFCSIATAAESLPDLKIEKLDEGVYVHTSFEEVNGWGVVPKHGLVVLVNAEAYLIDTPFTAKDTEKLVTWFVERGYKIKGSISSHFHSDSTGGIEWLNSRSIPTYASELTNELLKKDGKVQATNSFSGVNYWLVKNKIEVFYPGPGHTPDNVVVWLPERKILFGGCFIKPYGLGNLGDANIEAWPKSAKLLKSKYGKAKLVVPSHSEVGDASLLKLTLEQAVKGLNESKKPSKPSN

| SMILES | IC50 (IMP-1; [4]) [nM] | Serratia marcescens MITC95 [1, 5] [µM] | Escherichia coli MITC95 [2, 6] [µM] | Klebsiella pneumoniae MITC95 [3, 7] [µM] | IC50 (NDM-1; [8]) [nM] | IC50 (VIM-1; [15]) [nM] | IC50 (IMP-1; [16]) [nM] | Serratia marcescens MITC95 [1, 17] [µM] | Escherichia coli MITC95 [2, 18] [µM] | Klebsiella pneumoniae MITC95 [3, 19] [µM] | IC50 (NDM-1; [20]) [nM] | IC50 (VIM-1; [21]) [nM] | also measured |
| --- | --- | --- | --- | --- | --- | --- | --- | --- | --- | --- | --- | --- | --- |
| NCCN1CCC(Cc2ccc(-c3ccc(C4CNC4)cc3)c(-c3nn[nH]n3)c2S(N)(=O)=O)CC1 [Example 606, 6-[[1-(2-aminoethyl)-4-piperidyl]methyl]-3-[4-(azetidin-3-yl)phenyl]-2-(2H-tetrazol-5-yl)benzenesulfonamide] | 51.4 | 3.125 | 0.7813 | 1.563 | 17.7 | – | – | – | – | – | – | – | IC50 (VIM-1; [9]): 1.12 nM |
| NC1(CN2CCC3(CCC(c4ccc(C(F)(F)F)c(S(N)(=O)=O)c4-c4nnn[nH]4)CC3)CC2)CC1 [Example 834, 3-[3-[(1-aminocyclopropyl)methyl]-3-azaspiro[5.5]undecan-9-yl]-2-(1H-tetrazol-5-yl)-6-(trifluoromethyl)benzenesulfonamide] | – | – | – | – | – | – | – | – | – | – | – | – | IC50 (IMP-1; [10]): 5.45 nM; Serratia marcescens MITC95 [1, 11]: 6.25 µM; Escherichia coli MITC95 [2, 12]: 6.25 µM; Klebsiella pneumoniae MITC95 [3, 13]: 50 µM; IC50 (NDM-1; [10]): 1.49 nM; IC50 (VIM-1; [14]): 13.3 nM |
| NCCCNc1nc2c(-c3cccc(S(N)(=O)=O)c3-c3nnn[nH]3)cccc2s1 [Example 643, 3-[2-(3-aminopropylamino)-1,3-benzothiazol-4-yl]-2-(1H-tetrazol-5-yl)benzenesulfonamide] | 101 | 25 | 1.563 | 25 | 2.34 | 12.3 | – | – | – | – | – | – | – |
| CC1(O)CCCN(c2ccc(C(F)(F)F)c(S(N)(=O)=O)c2-c2nnn[nH]2)C1 (stereo not drawn) [Example 654, 3-(3-hydroxy-3-methylpiperidin-1-yl)-2-(1H-tetrazol-5-yl)-6-(trifluoromethyl)benzenesulfonamide] | 19.6 | 1.172 | 4.688 | 9.375 | 6.85 | 1.23 | – | – | – | – | – | – | – |
| NS(=O)(=O)c1c(C(F)(F)F)ccc(N2CCN(CCCO)CC2)c1-c1nnn[nH]1 [Example 763, 3-[4-(3-hydroxypropyl)piperazin-1-yl]-2-(1H-tetrazol-5-yl)-6-(trifluoromethyl) benzenesulfonamide] | – | – | – | – | – | – | – | – | – | – | – | – | IC50 (IMP-1; [10]): 46.4 nM; Serratia marcescens MITC95 [1, 11]: 3.125 µM; Escherichia coli MITC95 [2, 12]: 1.563 µM; Klebsiella pneumoniae MITC95 [3, 13]: 50 µM; IC50 (NDM-1; [10]): 37.7 nM; IC50 (VIM-1; [14]): 73.6 nM |
| NCCC1CCC(N2CC(c3ccc(-c4ccc(C(F)(F)F)c(S(N)(=O)=O)c4-c4nnn[nH]4)cc3)C2)CC1 (stereo not drawn) [Example 814, 4′-{1-[4-(2-aminoethyl)cyclohexyl]azetidin-3-yl}-2-(1H-tetrazol-5-yl)-4-(trifluoromethyl)biphenyl-3-sulfonamide] | – | – | – | – | – | – | – | – | – | – | – | – | IC50 (IMP-1; [10]): 12.5 nM; Serratia marcescens MITC95 [1, 11]: 6.25 µM; Escherichia coli MITC95 [2, 12]: 6.25 µM; Klebsiella pneumoniae MITC95 [3, 13]: 100 µM; IC50 (NDM-1; [10]): 8.08 nM; IC50 (VIM-1; [14]): 22.5 nM |
| CN(C)C1CCN(c2ccc(-c3cccc(S(N)(=O)=O)c3-c3nnn[nH]3)cn2)C1 (stereo not drawn) [Example 627, 3-[6-[3-(dimethylamino)pyrrolidin-1-yl]-3-pyridyl]-2-(1H-tetrazol-5-yl)benzenesulfonamide] | 415 | 12.5 | 1.172 | 100 | 32.9 | 830 | – | – | – | – | – | – | – |
| CN1CCC(NCc2ccc(-c3cccc(S(N)(=O)=O)c3-c3nnn[nH]3)cc2)C1 (stereo not drawn) [Example 332, 4′-(((1-methylpyrrolidin-3-yl)amino)methyl)-2-(1H-tetrazol-5-yl)-[1,1′-biphenyl]-3-sulfonamide] | – | – | – | – | – | – | 192 | 3.125 | 0.5859 | 100 | 11.5 | 554 | – |
| Nc1ccc(-c2ccc(CC3CCNCC3)c(S(N)(=O)=O)c2-c2nnn[nH]2)cn1 [Example 576, 3-(6-amino-3-pyridyl)-6-(4-piperidylmethyl)-2-(1H-tetrazol-5-yl)benzenesulfonamide] | 164 | 6.323 | 0.5969 | 4.24 | 12.3 | – | – | – | – | – | – | – | IC50 (VIM-1; [9]): 24.8 nM |
| Nc1cnc2cc(-c3cccc(S(N)(=O)=O)c3-c3nnn[nH]3)ccc2c1 [Example 416, 3-(3-amino-7-quinolyl)-2-(1H-tetrazol-5-yl)benzenesulfonamide] | – | – | – | – | – | – | 56.5 | 6.25 | 2.344 | 25 | 2.42 | 13.7 | – |
| CCC(CO)NCc1ccc(-c2cccc(S(N)(=O)=O)c2-c2nnn[nH]2)cc1 (stereo in doubt) [Example 345, 4′-({[(1S)-1-(hydroxymethyl)propyl]amino}methyl)-2-(1H-tetrazol-5-yl)biphenyl-3-sulfonamide] | – | – | – | – | – | – | 213 | 4.688 | 1.563 | 50 | 18.5 | 269 | – |
| NS(=O)(=O)c1c(C(F)(F)F)ccc([C@H]2CC[C@H](N[C@H]3CC[C@H]4CCN[C@H]4C3)CC2)c1-c1nnn[nH]1 [Example 679, 3-{4-[(3aS,6S,7aS)-octahydro-1H-indol-6-ylamino]cyclohexyl}-2-(1H-tetrazol-5-yl)-6-(trifluoromethyl)benzene sulfonamide] | 75.3 | 3.125 | 1.563 | 50 | 19.8 | – | – | – | – | – | – | – | IC50 (VIM-1; [9]): 21.2 nM |
| NS(=O)(=O)c1c(C(F)(F)F)ccc(-c2ccc(S(=O)(=O)CCO)cc2)c1-c1nnn[nH]1 [Example 742, 4′-[(2-hydroxyethyl)sulfonyl]-2-(1H-tetrazol-5-yl)-4-(trifluoromethyl)biphenyl-3-sulfonamide] | 1.84 | 12.5 | 12.5 | 25 | 2.01 | 0.657 | – | – | – | – | – | – | – |
| Cc1ccncc1-c1ccc(C(F)(F)F)c(S(N)(=O)=O)c1-c1nnn[nH]1 [Example 747, 3-(4-methylpyridin-3-yl)-2-(1H-tetrazol-5-yl)-6-(trifluoromethyl)benzenesulfon-amide] | – | – | – | – | – | – | – | – | – | – | – | – | IC50 (IMP-1; [10]): 11.2 nM; Serratia marcescens MITC95 [1, 11]: 25 µM; Escherichia coli MITC95 [2, 12]: 6.25 µM; Klebsiella pneumoniae MITC95 [3, 13]: 12.5 µM; IC50 (NDM-1; [10]): 5.72 nM; IC50 (VIM-1; VIM-1 IC50, fluorescence assay with CCF2-FA substrate): 0.866 nM |
| NCc1ccc2cc(-c3cccc(S(N)(=O)=O)c3-c3nn[nH]n3)ccc2n1 [Example 286, 3-(2-(aminomethyl)quinolin-6-yl)-2-(2H-tetrazol-5-yl)benzenesulfonamide] | – | – | – | – | – | – | 204 | 3.125 | 0.7813 | 3.125 | 6.14 | 12.7 | – |
| Nc1cnc(-c2cccc(S(N)(=O)=O)c2-c2nnn[nH]2)cn1 [Example 402, 3-(5-aminopyrazin-2-yl)-2-(1H-tetrazol-5-yl)benzenesulfonamide] | – | – | – | – | – | – | 389 | 6.25 | 0.3906 | 25 | 8.09 | 349 | – |
| Nc1nc2cccc(-c3ccc(C(F)(F)F)c(S(N)(=O)=O)c3-c3nnn[nH]3)c2s1 [Example 553, 3-(2-amino-1,3-benzothiazol-7-yl)-2-(1H-tetrazol-5-yl)-6-(trifluoromethyl)benzenesulfonamide] | 0.959 | 3.125 | 3.125 | 3.125 | 0.0499 | 0.0624 | – | – | – | – | – | – | – |
| Cc1cnc(-c2cccc(S(N)(=O)=O)c2-c2nn[nH]n2)cn1 [Example 248, 3-(5-Methylpyrazin-2-yl)-2-(2H-tetrazol-5-yl)benzenesulfonamide] | – | – | – | – | – | – | 134 | 4.688 | 0.1875 | 12.5 | 4.49 | 132 | – |
| NS(=O)(=O)c1c(C(F)(F)F)ccc([C@H]2CC[C@H](NC3CCNCC3)CC2)c1-c1nnn[nH]1 [Example 698, 3-[4-(piperidin-4-ylamino)cyclohexyl]-2-(1H-tetrazol-5-yl)-6-(trifluoromethyl)benzene sulfonamide] | 29.6 | 3.125 | 0.7813 | 3.125 | 10 | 6.52 | – | – | – | – | – | – | – |

Source: patent publication US9708336B2, “Metallo-beta-lactamase inhibitors” (priority 2014, dated 2017)
